Assay results from patent US20190352297A1, “SELECTIVE AURORA A KINASE INHIBITORS” (UNIVERSITAT BERN, priority 2017, published 2019).
Substitutions are numbered along the chain they refer to.

How the values were obtained:
Aurora A = molecular target: T1, Aurora A (Homo sapiens, UniProt O14965); assay: Active site directed binding competition assay, KD (DiscoveRx); details: free Aurora A
T1 sequence (O14965 1-403): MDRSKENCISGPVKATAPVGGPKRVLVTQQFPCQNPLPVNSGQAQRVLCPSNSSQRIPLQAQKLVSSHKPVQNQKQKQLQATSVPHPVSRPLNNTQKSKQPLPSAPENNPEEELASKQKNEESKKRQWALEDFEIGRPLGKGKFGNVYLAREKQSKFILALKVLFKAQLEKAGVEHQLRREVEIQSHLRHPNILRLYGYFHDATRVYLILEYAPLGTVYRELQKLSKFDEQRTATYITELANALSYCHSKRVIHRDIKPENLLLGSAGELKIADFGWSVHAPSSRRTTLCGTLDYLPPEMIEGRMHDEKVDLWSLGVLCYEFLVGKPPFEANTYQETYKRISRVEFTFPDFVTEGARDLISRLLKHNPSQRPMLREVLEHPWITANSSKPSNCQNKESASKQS
Method: (§1) The kinome profiling of compound 9 was conducted by DiscoveRx. In total, 456 kinases were assayed (scanMAX). For most assays, kinase-tagged T7 phage strains were grown in parallel in 24-well blocks in an E. coli host derived from the BL21 strain. E. coli were grown to log-phase and infected with T7 phage from a frozen stock (multiplicity of infection=0.4) and incubated with shaking at 32° C. until lysis (90-150 minutes). The lysates were centrifuged (6000 g) and filtered (0.2 μm) to remove cell debris. The remaining kinases were produced in HEK-293 cells and subsequently tagged with DNA for qPCR detection. […] The liganded beads were blocked with excess biotin and washed with blocking buffer (SeaBlock (Pierce), 1% BSA, 0.05% Tween 20, 1 mM DTT) to remove unbound ligand and to reduce non-specific phage binding. […] Test compounds were prepared as 40× stocks in 100% DMSO and directly diluted into the assay. All reactions were performed in polypropylene 384-well plates in a final volume of 0.04 ml. […] The kinase concentration in the eluates was measured by qPCR. […] was screened at 1 μM, and results for primary screen binding interactions were reported as % of control (PoC). PoC=(test compound signal−positive control signal)/(DMSO signal−positive control signal). PoC values at 1 μM 9 for all kinases were visualized using TREEspot (DiscoveRx). […] KD values were determined with a standard dose-response curve using the Hill equation.

[1] = molecular target: T2, Aurora B (without INCENP) (Homo sapiens, UniProt Q96GD4); assay: as above
T2 construct: purchased DiscoveRx scanMAX
T2 sequence (Q96GD4 whole entry): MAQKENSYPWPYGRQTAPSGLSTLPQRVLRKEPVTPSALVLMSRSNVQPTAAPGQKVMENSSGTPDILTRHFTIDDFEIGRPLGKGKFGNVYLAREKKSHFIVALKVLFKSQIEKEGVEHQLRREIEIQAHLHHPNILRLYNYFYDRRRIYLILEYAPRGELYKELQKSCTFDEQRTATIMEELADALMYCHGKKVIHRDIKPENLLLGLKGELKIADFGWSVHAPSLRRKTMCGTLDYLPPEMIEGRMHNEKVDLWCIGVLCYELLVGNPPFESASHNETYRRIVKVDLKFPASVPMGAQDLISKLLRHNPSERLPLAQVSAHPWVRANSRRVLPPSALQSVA
Method: as §1

Aurora A / TPX2 (1-43) = molecular target: T3, Aurora A / TPX2 (1-43) (Homo sapiens, UniProt O14965); assay: Microscale thermophoresis, Aurora A binding to labeled TPX2 1-43; details: excess 9, three independent measurements
T3 construct: human Aurora A kinase domain (residues 122-403 in the pET24-d vector); His-tag (cleaved yes); made in house; host or cells: E. coli BL21 (DE3) Rosetta (Aurora A); E. coli Bl21 (DE3) (TPX2)
T3 sequence (O14965 122-403): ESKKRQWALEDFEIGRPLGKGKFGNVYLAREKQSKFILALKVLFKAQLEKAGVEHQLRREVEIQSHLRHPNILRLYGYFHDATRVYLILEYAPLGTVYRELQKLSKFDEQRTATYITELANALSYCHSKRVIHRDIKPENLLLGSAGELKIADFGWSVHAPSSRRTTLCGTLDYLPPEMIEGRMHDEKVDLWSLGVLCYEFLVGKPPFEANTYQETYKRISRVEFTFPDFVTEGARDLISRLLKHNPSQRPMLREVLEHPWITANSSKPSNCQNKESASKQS
Method: TPX2 was labelled using the Monolith NT.115 protein labelling kit RED (NanoTemper Technologies). The labelling was performed according to the manufacturer's instructions in the supplied labelling buffer applying a concentration of 44 μM peptide at room temperature for 30 min. Labelled TPX2 was adjusted to 400 nM with final buffer and 0.05% Tween-20 (NanoTemper Technologies). Aurora A kinase with or without ligand was dissolved in final buffer supplemented with 0.05% Tween-20, and a series of 12 dilutions (1:1) was prepared in the identical buffer, keeping the DMSO/ligand concentration constant (final concentrations 0.5% and 125 μM, respectively). Final protein concentrations were between 4.4 nM and 150 μM. […] Thermophoresis was measured at room temperature with 5 s/30 s/5 s laser off/on/off times. […] Data of three independent measurements were analyzed (NT.Analysis software, version 1.5.41, NanoTemper Technologies) using the thermophoresis signal after 10 sec. Points measured above 4.7 μM Aurora A were rejected.

GFP-Aurora A-Arg137Ala = molecular target: T4, GFP-Aurora A-Arg137Ala (Homo sapiens, UniProt O14965, R137A); assay: Phenotypic rescue, cells expressing mutant Aurora A; type: cell-based
T4 construct: All Aurora A clones were constructed using full-length Aurora A as a template; expressed in transfected cells; host or cells: HeLa Kyoto
T4 sequence (O14965 1-403 R137A): T1 sequence (O14965 1-403) with R137A
Method: HeLa Kyoto cells were cultured in high-glucose DMEM with GlutaMAX (Life Technologies) media supplemented with 10% fetal calf serum (FCS) in a humidified 5% CO2 incubator at 37° C. For plasmid transfections, cells were seeded at 80-90% confluence. 4 μg of plasmid DNA in 100 μl OptiMEM and 4 μl of Lipofectamine 2000 (Life Technologies) in 100 μl OptiMEM were incubated in parallel for 5 minutes, mixed for 20 minutes and added to each well. All Aurora A clones were constructed using full-length Aurora A as a template with appropriate PCR primer pairs. […] GFP-Aurora AR137A and GFP-Aurora AW277A were engineered using a site directed mutagenesis kit (Agilent Technologies, no. 210515) with appropriate primers. For determining the mitotic index and the chromosome misalignment phenotype, cells were incubated with various concentrations of compounds for 20 h before analysis. Cells were likewise treated with 0.25 μM MLN8237 (Selleckchem, no. S1133) or 5 μM ZM447439 (Selleckchem, no. S1103). For flow cytometry analysis, 50 nM MLN8037 and 2.5 μM ZM447439 were used. […] To assess the impact of compound 9 on cell cycle progression, DNA content was analyzed after propidium iodide staining using FACS (BD Accuri C6 flow cytometer).

[2] = In vitro reactivity towards glutathione (GSH); type: physicochemical; details: after 24 h with 5 mM GSH, pH 7.4, 37° C.
Method: […] Reaction scheme and structures of modified analogs. b. LC chromatogram of the reaction mixture after t=0 h and t=14 h. […] 9-methylcarbazole (tret=2.44 min) was used as internal control. c. Concentration of compound 9 during the course of the reaction as determined by integration of the absorption peaks (at 310 nm) of compound 9 at tret=1.78 min. The average of two independent experiments is shown, SD is <5% for all data points. d. Aurora A inhibition in the HTRF biochemical assay. (d) Cellular pThr288 Aurora-A levels of cells incubated with 9 or rac-92 overnight at the indicated concentrations. The experiment was repeated twice and the error bars represent SD. […] Numbers represent average IC50±SD of two independent experiments.

Kd (Aurora A): 5 nM
Kd [1]: 10 nM
binding of Aurora to labeled TPX2 1-43 in the presence of inhibitor (Aurora A / TPX2 (1-43)): abolished
sensitivity of GFP-Aurora A-Arg137Ala to inhibitor (GFP-Aurora A-Arg137Ala): insensitive
conversion to GSH adduct [2]: 50%
SMILES: CCc1ccc(N=C2SC(=Cc3ccnc(Nc4ccc(C(=O)O)cn4)c3)C(=O)N2C)cc1 [Compound 9]
